From US20240246948A1, “BENZAMIDE DERIVATIVE, METHOD FOR PREPARING SAME, AND PHARMACEUTICAL COMPOSITION FOR PREVENTION OR TREATMENT OF CANCER CONTAINING SAME AS ACTIVE INGREDIENT” (HK INNO.N CORPORATION, priority 2021, published 2024)

Assays:
[1] = biological target: Ba/F3 EGFR L858R/T790M (LT) (Homo sapiens, UniProt P00533, T790M/L858R, cells depend on it); assay: Cell growth inhibitory ability in Ba/F3 cells overexpressing EGFR L858R/T790M (MTS, CellTiter 96 AQueous); type: cell-based; details: 72 hours, MTS absorbance at 490 nm, read-out: Ba/F3 EGFR double mutant L858R/T790M, IC50
Protocol: (§1) In order to confirm that the compound represented by formula 1 provided in one aspect of the present invention acts as an allosteric inhibitor against WT and mutant of EGFR, the cell growth inhibitory effect was evaluated in BaF3 cells overexpressing WT and mutant of EGFR.
(§2) More specifically, the cell growth inhibitory ability of the compound of the present invention to the Ba/F3 cell line overexpressing WT and mutant of EGFR was evaluated using CellTiter 96 AQueous Non-Radioactive Cell Proliferation Assay system of Promega, as follows. AQueous Non-Radioactive Cell Proliferation Assay is a method of confirming cell growth inhibitory ability by measuring the degree of color development by reducing MTS (3-(4,5-Dimethylthiazol-2-yl)-5-(3-carboxymethoxyphenyl)-2-(4-sulfophenyl)-2H-tetrazolium) to Formazan by a reductase secreted by mitochondria present in living cells in a cell culture state. The Ba/F3 EGFR WT and Ba/F3 EGFR del19/T790M/C797S (DTC), Ba/F3 EGFR L858R (L), Ba/F3 EGFR L858R/T790M (LT), and Ba/F3 EGFR L858R/T790M/C797S (LTC) mutation cell lines used in the present invention were purchased from the laboratory of Professor Byung-cheol Cho, Yonsei University. All cell lines were cultured in RPMI supplemented with 10% FBS, 1% penicillin-streptomycin and 1 μg/ml of puromycine in a 5% CO2 incubator at 37° C.
(§3) The cell survival inhibitory effect of the compound according to each EGFR mutation was analyzed by the following analysis method.
(§4) BaF3 cells were distributed in a 96-well cell culture plate at the density of 2000˜10000 cells/100 μL/well, and cultured for 24 hours. Thereafter, the concentration of the compound represented by formula 1 provided in one aspect of the present invention was prepared to double the final concentrations of 0.1 nM, 1 nM, 10 nM, 100 nM, 1000 nM and 10000 nM, and the compound was treated to the plate (100 μL/well). The plate was reacted in an incubator at 37° C. for 72 hours. Then, MTS was treated to the plate (20 μL/well) and the plate was incubated at 37° C. for 2 to 4 hours. Finally, after measuring the absorbance at 490 nm using a microplate reader, the relative value compared to 0 nM (% Control) was obtained to confirm the cell growth inhibitory ability of the compound. The measured values were analyzed using Prism program (version 8.0, Graphpad Software, Inc.), and the IC50 value (Inhibition concentration 50), an indicator of the cell growth inhibitory ability of the compound, was calculated.

[2] = biological target: Ba/F3 EGFR L858R/T790M/C797S (LTC) (Homo sapiens, UniProt P00533, T790M/C797S/L858R, cells depend on it); assay: Cell growth inhibitory ability in Ba/F3 cells overexpressing EGFR L858R/T790M/C797S (MTS, CellTiter 96 AQueous); type: cell-based; details: 72 hours, MTS absorbance at 490 nm, read-out: Ba/F3 EGFR triple mutant L858R/T790M/C797S, IC50
Protocol: as §1, §2, §3, §4

Row | Compound | GI50 [1] [nM] | GI50 [2] [nM]
1 | Cc1cc(C(=O)N[C@@H](c2cc3ccccc3[nH]2)c2cc(F)ccc2O)cc(-c2ncc(N3CCN(C)CC3)cn2)c1 [Example 37, (R)—N-((5-fluoro-2-hydroxyphenyl)(1H-indole-2-yl)methyl)-3-methyl-5-(5-(4-methylpiperazine-1-yl)pyrimidine-2-yl)benzamide] | 30 to 200 | < 30
2 | CCCC1CCN(c2cnc(-c3cc(C)cc(C(=O)N[C@@H](c4cc5ccccc5[nH]4)c4cc(F)ccc4O)c3)nc2)CC1 [Example 38, N—[(R)-(5-fluoro-2-hydroxy-phenyl)-(1H-indole-2-yl)methyl]-3-methyl-5-[5-(4-propyl-1-piperidyl)pyrimidine-2-yl]benzamide] | > 200 | > 200
3 | Cc1cc(C(=O)N[C@@H](c2cc3ccccc3[nH]2)c2cc(F)ccc2O)cc(-c2ncc(N3CCCCC3)cn2)c1 [Example 40, N—[(R)-(5-fluoro-2-hydroxy-phenyl)-(1H-indole-2-yl)methyl]-3-methyl-5-[5-(1-piperidyl)pyrimidine-2-yl]benzamide] | < 30 | 30 to 200
4 | Cc1cc(C(=O)NC(c2cc3ccccc3[nH]2)c2cc(F)ccc2O)cc(-c2ccc(N3CCC(N)CC3)cc2)c1 (centres unmarked) [Example 32, 4′-(4-aminopiperidine-1-yl)-N-((5-fluoro-2-hydroxyphenyl)(1H-indole-2-yl)methyl)-5-methyl-[1,1′-biphenyl]-3-carboxamide] | < 30 | < 30
5 | CCN(CC)C1CCN(c2cnc(-c3cc(C)cc(C(=O)N[C@@H](c4cc5ccccc5[nH]4)c4cc(F)ccc4O)c3)nc2)CC1 [Example 45, (R)-3-(5-(4-(diethylamino)piperidine-1-yl)pyrimidine-2-yl)-N-((5-fluoro-2-hydroxyphenyl)(1H-indole-2-yl)methyl)-5-methylbenzamide] | < 30 | < 30
6 | (R)-3-(6-((4-(dimethylamino)piperidine-1-yl)methyl)pyridine-3-yl)-N-((5-fluoro-2-hydroxyphenyl)(1H-indole-2-yl))methyl)-5-methylbenzamide [Example 43] | < 30 | 30 to 200
7 | NC1CCN(c2ccc(-c3cc(C(=O)N[C@@H](c4cc5ccccc5[nH]4)c4cc(F)ccc4O)cc([N+](=O)[O-])c3)cc2)CC1 [Example 7, 4′-(4-aminopiperidine-1-yl)-N-((5-fluoro-2-hydroxyphenyl)(1H-indole-2-yl)methyl)-5-nitro-[1,1′-biphenyl]-3-carboxamide] | > 200 | > 200
8 | Cc1cc(C(=O)N[C@@H](c2cc3ccccc3[nH]2)c2cc(F)ccc2O)cc(-c2ncc(N3CCNCC3)cn2)c1 [Example 36, (R)—N-((5-fluoro-2-hydroxyphenyl)(1H-indole-2-yl)methyl)-3-methyl-5-(5-(piperazine-1-yl)pyrimidine-2-yl)benzamide] | < 30 | < 30
9 | Cc1cc(C(=O)N[C@@H](c2cc3ccccc3[nH]2)c2cc(F)ccc2O)cc(-c2ncc(N3CCC(N(C)C)CC3)cn2)c1 [Example 39, 3-[5-[4-(dimethylamino)-1-piperidyl]pyrimidine-2-yl]-N—[(R)-(5-fluoro-2-hydroxy-phenyl)-(1H-indole-2-yl)methyl]-5-methyl-benzamide] | < 30 | < 30
10 | Cc1cc(C(=O)N[C@@H](c2cc3ccccc3[nH]2)c2cc(F)ccc2O)cc(-c2ccc(N3CCC(N)CC3)cc2)c1 [Example 1, (R)-4′-(4-aminopiperidine-1-yl)-N-((5-fluoro-2-hydroxyphenyl)(1H-indole-2-yl)methyl)-5-methyl-[1,1′-biphenyl]-3-carboxamide] | < 30 | < 30
11 | Cc1cc(C(=O)N[C@@H](c2cc3ccccc3[nH]2)c2cc(F)ccc2O)cc(-c2ncc(N3CCC(N)CC3)cn2)c1 [Example 21, (R)-3-(5-(4-aminopiperidine-1-yl)pyrimidine-2-yl)-N-((5-fluoro-2-hydroxyphenyl)(1H-indole-2-yl)methyl)-5-methylbenzamide] | < 30 | < 30
12 | NC1CCN(c2ccc(-c3cc(Cl)cc(C(=O)N[C@@H](c4cc5ccccc5[nH]4)c4cc(F)ccc4O)c3)cc2)CC1 [Example 10, (R)-4′-(4-aminopiperidine-1-yl)-5-chloro-N-((5-fluoro-2-hydroxyphenyl)(1H-indole-2-yl)methyl)-[1,1′-biphenyl]-3-carboxamide] | < 30 | 30 to 200
13 | Cc1cc(C(=O)N[C@@H](c2cc3ccccc3[nH]2)c2cc(F)ccc2O)cc(-c2cc(C)c(N3CCC(N)CC3)cn2)c1 [Example 33, (R)-3-(5-(4-aminopiperidine-1-yl)-4-methylpyridine-2-yl)-N-((5-fluoro-2-hydroxyphenyl)(1H-indole-2-yl)methyl)-5-methylbenzamide] | < 30 | < 30
14 | CC(C)(C)c1cc(C(=O)N[C@@H](c2cc3ccccc3[nH]2)c2cc(F)ccc2O)cc(-c2ccc(N3CCC(N)CC3)cc2)c1 [Example 4, (R)-4′-(4-aminopiperidine-1-yl)-5-(tert-butyl)-N-((5-fluoro-2-hydroxyphenyl)(1H-indole-2-yl)methyl)-[1,1′-biphenyl]-3-carboxamide] | > 200 | > 200
15 | Cc1cc(C(=O)N[C@@H](c2cc3ccccc3[nH]2)c2cc(F)ccc2O)cc(-c2cnc(N3CCC(N)CC3)nc2)c1 [Example 16, (R)-3-(2-(4-aminopiperidine-1-yl)pyrimidine-5-yl)-N-((5-fluoro-2-hydroxyphenyl)(1H-indole-2-yl)methyl)-5-methylbenzamide] | < 30 | 30 to 200
16 | Cc1cc(C(=O)N[C@@H](c2cc3ccccc3[nH]2)c2cc(F)ccc2O)cc(-c2ccc(CN3CCC(N(C)C)CC3)cn2)c1 [Example 42] | < 30 | 30 to 200
17 | NC1CCN(c2ccc(-c3cc(F)cc(C(=O)N[C@@H](c4cc5ccccc5[nH]4)c4cc(F)ccc4O)c3)cc2)CC1 [Example 5, (R)-4′-(4-aminopiperidine-1-yl)-5-fluoro-N-((5-fluoro-2-hydroxyphenyl)(1H-indole-2-yl)methyl)-[1,1′-biphenyl]-3-carboxamide] | < 30 | > 200
18 | NC1CCN(c2ccc(-c3cc(C(=O)N[C@@H](c4cc5ccccc5[nH]4)c4cc(F)ccc4O)ccn3)cc2)CC1 [Example 14, (R)-2-(4-(4-aminopiperidine-1-yl)phenyl)-N-((5-fluoro-2-hydroxyphenyl)(1H-indole-2-yl)methyl)isonicotinamide] | 30 to 200 | > 200
19 | COc1ccc(F)cc1[C@@H](NC(=O)c1cc(OC(F)(F)F)cc(-c2ccc(N3CCC(N)CC3)cc2)c1)c1cc2ccccc2[nH]1 [Example 12, (R)-4′-(4-aminopiperidine-1-yl)-N-((5-fluoro-2-methoxyphenyl)(1H-indole-2-yl)methyl)-5-(trifluoromethoxy)-[1,1′-biphenyl]-3-carboxamide] | 30 to 200 | > 200
20 | NC1CCN(c2ccc(-c3cc(C(=O)N[C@@H](c4cc5ccccc5[nH]4)c4cc(F)ccc4O)cc(C(F)(F)F)c3)cc2)CC1 [Example 6, 4′-(4-aminopiperidine-1-yl)-N-((5-fluoro-2-hydroxyphenyl)(1H-indole-2-yl)methyl)-5-(trifluoromethyl)-[1,1′-biphenyl]-3-carboxamide] | > 200 | > 200
21 | COc1cc(C(=O)N[C@@H](c2cc3ccccc3[nH]2)c2cc(F)ccc2O)cc(-c2ccc(N3CCC(N)CC3)cc2)c1 [Example 3, (R)-4′-(4-aminopiperidine-1-yl)-N-((5-fluoro-2-hydroxyphenyl)(1H-indole-2-yl)methyl)-5-methoxy-[1,1′-biphenyl]-3-carboxamide] | > 200 | > 200
22 | Cc1c(C(=O)N[C@@H](c2cc3ccccc3[nH]2)c2cc(F)ccc2O)cccc1-c1ccc(N2CCC(N)CC2)cc1 [Example 30, (R)-4′-(4-aminopiperidine-1-yl)-N-((5-fluoro-2-hydroxyphenyl) (1H-indole-2-yl)methyl)-2-methyl-[1,1′-biphenyl]-3-carboxamide] | > 200 | > 200
